Experimental data taken from patent US20260356824A1, “COMPOUNDS FOR TREATING FIBROTIC DISEASES” (Meta-Immue Inc., priority 2023, published 2026).
pIC50: −log10 of the molar value. Each block holds one molecule with its values, some of them ahead of it.

Legend:
hLPAR1 = molecular target: T1, hLPAR1 (Homo sapiens, UniProt Q92633); assay: Ca2+ Flux Assay (B103 cells stably expressing hLPAR1); type: cell-based; details: LPA-induced calcium release, Fura-2 AM, compound 20 min at RT
T1 construct: expressed in transfected cells
T1 sequence (Q92633 whole entry): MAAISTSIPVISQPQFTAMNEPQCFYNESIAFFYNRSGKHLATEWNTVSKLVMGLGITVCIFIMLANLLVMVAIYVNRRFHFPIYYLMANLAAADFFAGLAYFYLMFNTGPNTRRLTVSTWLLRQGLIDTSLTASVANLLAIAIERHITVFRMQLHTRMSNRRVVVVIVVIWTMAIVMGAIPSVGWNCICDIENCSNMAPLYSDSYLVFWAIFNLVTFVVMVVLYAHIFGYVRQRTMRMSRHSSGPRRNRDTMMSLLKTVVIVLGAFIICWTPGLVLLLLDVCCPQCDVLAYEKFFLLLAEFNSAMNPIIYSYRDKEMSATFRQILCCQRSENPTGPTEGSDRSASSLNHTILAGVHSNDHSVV
Method in brief: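 Fura-2 AM (5 μM) loaded 40 min at RT in HBSS/20 mM HEPES/probenecid/0.3% fatty-acid-free BSA after 2 h serum starvation. Compounds preincubated 20 min at RT, then LPA […] added. Intracellular calcium mobilization read as fluorescence intensity.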

A2058 cells = assay: Chemotaxis Assay (LPA-induced migration of A2058 cells); type: cell-based; details: Homo sapiens, 4 to 8 hours, crystal violet 590 nm
Method in brief: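 A2058 cells, starved 24 hr and treated with test compound or vehicle, were placed on a fibronectin-coated membrane ([…]) above […] in DMEM. After 4–8 h migration, migrated cells were crystal violet stained and read at 590 nm. Values are relative percentage of control.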

[1] = Liver microsomal stability, human; type: in vitro ADME; details: human liver microsomes; 30 min; percent of parent remaining; read-out: Liver Microsomal stability (%), % of remaining after 30 min, Human
BSEP = molecular target: T2, BSEP (Homo sapiens, UniProt O95342); assay: Bile Salt Export Pump (BSEP) Assay, Sf9 insect cell vesicles expressing BSEP; type: in vitro ADME; details: 10 μM test compound, probe substrate 1 μM [3H]-taurocholic acid, 15 min incubation
T2 construct: ATP-dependent uptake of radiolabelled probe substrate
T2 sequence (O95342 whole entry): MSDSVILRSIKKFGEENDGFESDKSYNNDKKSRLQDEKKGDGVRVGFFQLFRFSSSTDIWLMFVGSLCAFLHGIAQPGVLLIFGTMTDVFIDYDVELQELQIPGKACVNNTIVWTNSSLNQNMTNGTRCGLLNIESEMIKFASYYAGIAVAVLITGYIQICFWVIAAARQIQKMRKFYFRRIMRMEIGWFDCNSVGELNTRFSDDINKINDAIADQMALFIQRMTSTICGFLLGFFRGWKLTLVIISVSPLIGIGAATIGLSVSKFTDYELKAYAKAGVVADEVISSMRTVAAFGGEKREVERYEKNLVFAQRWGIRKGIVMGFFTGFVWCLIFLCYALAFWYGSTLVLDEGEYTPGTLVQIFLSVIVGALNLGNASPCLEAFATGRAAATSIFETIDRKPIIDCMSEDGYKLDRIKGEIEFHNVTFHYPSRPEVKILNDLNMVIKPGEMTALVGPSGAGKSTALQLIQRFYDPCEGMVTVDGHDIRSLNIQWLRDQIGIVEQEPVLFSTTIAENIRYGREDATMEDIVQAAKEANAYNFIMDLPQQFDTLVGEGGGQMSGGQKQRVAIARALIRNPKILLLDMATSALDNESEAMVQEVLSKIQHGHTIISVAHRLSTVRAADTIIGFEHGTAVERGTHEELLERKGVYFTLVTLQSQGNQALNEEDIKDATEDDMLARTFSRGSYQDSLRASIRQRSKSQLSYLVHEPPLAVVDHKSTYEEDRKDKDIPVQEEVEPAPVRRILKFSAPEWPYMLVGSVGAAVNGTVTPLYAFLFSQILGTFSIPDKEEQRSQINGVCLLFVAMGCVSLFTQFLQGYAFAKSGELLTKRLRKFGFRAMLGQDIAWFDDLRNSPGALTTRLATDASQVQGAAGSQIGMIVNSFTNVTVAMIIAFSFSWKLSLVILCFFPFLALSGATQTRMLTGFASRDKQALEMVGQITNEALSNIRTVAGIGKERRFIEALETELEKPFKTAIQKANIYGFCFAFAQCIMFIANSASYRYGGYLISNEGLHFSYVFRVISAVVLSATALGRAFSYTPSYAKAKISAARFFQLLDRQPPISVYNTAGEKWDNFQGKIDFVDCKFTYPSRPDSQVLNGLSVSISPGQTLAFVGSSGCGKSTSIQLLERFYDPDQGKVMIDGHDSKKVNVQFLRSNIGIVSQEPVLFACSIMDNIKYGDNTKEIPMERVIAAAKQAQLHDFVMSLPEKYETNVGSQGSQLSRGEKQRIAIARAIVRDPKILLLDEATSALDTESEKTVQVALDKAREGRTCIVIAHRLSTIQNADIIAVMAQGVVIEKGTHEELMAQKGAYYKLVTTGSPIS
Method in brief: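 BSEP-expressing Sf9 vesicles were incubated at 37 °C with probe substrate and test article (0.5% DMSO) in HEPES-Tris pH 7.4 KNO3/Mg/sucrose buffer, and transport was started with 5 mM Mg-ATP or AMP. After rapid filtration, substrate was counted radiometrically; ATP-dependent rate = ATP minus mean AMP accumulation per incubation time, giving percent inhibition.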

[2] = Liver microsomal stability, rat; type: in vitro ADME; details: rat liver microsomes; 30 min; percent of parent remaining; read-out: Liver Microsomal stability (%), % of remaining after 30 min, Rat

SMILES: Cc1noc(C2CCN(c3ccc(C4(C(=O)NS(=O)(=O)CCCC(=O)O)CC4)cc3)CC2)c1NC(=O)O[C@H](C)c1ccccc1 [Compound 84]
- pIC50 (hLPAR1): > 8.00
- pIC50 (A2058 cells): 6.30 to 7.00
- remaining at 0.5 h [1]: 50 to 75%
- inhibition at 0.25 h, 10 µM (BSEP): ≤ 25%
- remaining at 0.5 h [2]: > 75%

SMILES: Cc1nc(C2(C(=O)O)CC2)ccc1N1CCC(c2onc(C)c2NC(=O)O[C@H](C)c2ccccc2)CC1 [Compound 62]
- pIC50 (hLPAR1): 6.70 to 8.00
- pIC50 (A2058 cells): 6.30 to 7.00
- remaining at 0.5 h [1]: > 75%
- inhibition at 0.25 h, 10 µM (BSEP): 25 to 50%
- remaining at 0.5 h [2]: > 75%

The next lines start with results.

- pIC50 (hLPAR1): > 8.00
- pIC50 (A2058 cells): > 7.00
- remaining at 0.5 h [1]: > 75%
- remaining at 0.5 h [2]: > 75%
SMILES: Cc1noc(C2CCN(c3ccc(C4(C(=O)O)CC4)cc3)CC2)c1NC(=O)O[C@H](C)c1ccccc1 [Compound 87, 1-(4-{4-[3-methyl-4-({[(1R)-1-phenylethoxy]carbonyl}amino)-1,2-oxazol-5-yl]piperidin-1-yl}phenyl)cyclopropane-1-carboxylic acid]
- inhibition at 0.25 h, 10 µM (BSEP): 25 to 50%

- pIC50 (hLPAR1): > 8.00
- pIC50 (A2058 cells): > 7.00
- remaining at 0.5 h [1]: > 75%
- remaining at 0.5 h [2]: 50 to 75%
SMILES: Cc1noc(C2CCN(c3ccc(C4(C(=O)NS(=O)(=O)CC(=O)O)CC4)cc3)CC2)c1NC(=O)O[C@H](C)c1ccccc1 [Compound 80]
- inhibition at 0.25 h, 10 µM (BSEP): 25 to 50%

- pIC50 (hLPAR1): > 8.00
- pIC50 (A2058 cells): > 7.00
- remaining at 0.5 h [1]: 25 to 50%
- remaining at 0.5 h [2]: > 75%
SMILES: CCc1ccccc1[C@@H](C)OC(=O)Nc1c(C)noc1C1CCN(c2ccc(C3(C(=O)O)CC3)cc2)CC1 [Compound 38, (R)-1-(4-(4-(4-(((1-(2-ethylphenyl)ethoxy)carbonyl)amino)-3-methylisoxazol-5-yl)piperidin-1-yl)phenyl)cyclopropane-1-carboxylic acid]
- inhibition at 0.25 h, 10 µM (BSEP): 50 to 75%
